Data reported in patent publication US20250177346A1 (priority 2022, published 2025).

How the values were obtained:
C57BL/6 mouse model [1] = conditions: in vivo
[2] = system: hair dermal papilla cells (HDPCs) derived from human hair follicles; type: cell-based
[3] = system: outer root sheath cells (ORSs) derived from human hair follicles; type: cell-based
human hair follicles [4] = type: cell-based
human hair follicles [5] = type: cell-based; remark: listed apart in the source
C57BL/6 mouse model [6] = conditions: in vivo; remark: listed apart in the source
[7] = system: human hair dermal papilla cells; type: cell-based
[8] = system: hair dermal papilla cells derived from human hair follicles; type: cell-based
[9] = system: outer root sheath cells derived from human hair follicles; type: cell-based
[10] = system: outer root sheath cells derived from human hair follicles; type: cell-based; remark: listed apart in the source

## Nc1cc(N2CCCCC2)nc(N)[n+]1[O-] [minoxidil, 6-piperidin-1-ylpyrimidine-2,4-diamine 3-oxide]
C57BL/6 mouse model [1]
  hair growth / area of hair growth in the anagen phase: hair growth was shown

## O=C(NCc1ccc2c(c1)OCO2)c1c(Cl)cccc1Cl [Alda-1, N-(1,3-benzodioxol-5-ylmethyl)-2,6-dichlorobenzamide]
[2]
  cell viability of hair dermal papilla cells: significantly increased
  proliferation of hair dermal papilla cells compared with minoxidil: equivalent to or greater than those of minoxidil
[3]
  cell viability of outer root sheath cells: significantly increased
  proliferation of outer root sheath cells compared with minoxidil: equivalent to or greater than those of minoxidil
Human hair follicles [4]
  elongation of hair in human hair follicles: promoted the elongation of hair
  growth of hair in hair follicles compared with minoxidil: higher levels compared to minoxidil
Human hair follicles [5]
  Ki-67 positive cell effect compared with minoxidil: even better than that of minoxidil
  level of Ki-67 positive cells in hair follicles: increased
C57BL/6 mouse model [6]
  anagen induction score: increased compared to the control
  formation of hair follicles (hematoxylin and eosin staining): promoted
  percentage of areas where hair in the anagen phase grew: significantly increased
  skin thickness: increased compared to the control
[7]
  protein level of basic fibroblast growth factor (bFGF): increased
  protein level of insulin-like growth factor 1 (IGF-1): increased
  protein level of keratinocyte growth factor (FGF-7): increased
  protein level of platelet-derived growth factor (PDF): increased
[8]
  fluorescence level indicating DCFDA (oxidative stress): significantly reduced
[9]
  oxidative stress in outer root sheath cells (DCFDA level, flow cytometry): significantly reduced
[10]
  ATP production of mitochondria, increase: ~10 fold
  basal respiration rate: remarkably increased
  maximal respiration rate: remarkably increased
  oxygen consumption efficiency of outer root sheath cells: increased
C57BL/6 mouse model [1]
  hair growth / area of hair growth in the anagen phase: hair growth was shown
